In PubChem BioAssay (NCI) one finds TGI and GI50 data, which are given here for 11 compounds.

What all share (assay): growth of human tumour cells (NCI), 48 h
The test system of experiment [1] is SNB-75 CNS.
In experiment [2] the test system is IGROV1 ovarian.
Experiment [3] has as its system HCT-15 colon.
Experiment [4] has as its system COLO 205 colon.
For experiment [5], the system named is MALME-3M melanoma.
Experiment [6] deals with KM20L2 colon.
In experiment [7] the test system is TK-10 renal.
For experiment [8], the system named is T-47D breast.
For experiment [9], the system named is KM12 colon.
The test system of experiment [10] is M19-MEL melanoma.

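All cell lines were grown in 96-well plates and treated with compound for 48 hours. Abbreviation: GI50, concentration required for 50% inhibition of growth. TGI marks complete inhibition of growth.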

For `CC(C)COC1Sc2ccccc2S1`, the TGI in [1] was determined as 6.36 µM; in experiment [2], 32.3 µM; in experiment [3] it was 66 µM; in experiment [4] it was 89.2 µM; in [5], 57.2 µM; in experiment [6] it was 36.2 µM. In experiment [7], the TGI came to 43 µM.
Regarding `Nc1ncc(-c2ccc3ncnc(N4CCc5ccc(Cl)cc54)c3c2)cc1C(F)(F)F`, the GI50 was 0.113 µM in experiment [1]; 0.188 µM in [2]; 1.3 µM in experiment [3]; 3.68 µM in [4]; 0.557 µM in experiment [8]; 0.919 µM in [5]. Also, the GI50 in experiment [7] is 1.36 µM; in [9], 2.48 µM. In addition, the TGI was 1.64 µM in experiment [1]; 0.964 µM in experiment [2]; 22.6 µM in [3]; 30.5 µM in experiment [4]; 10.9 µM in [8]; 6.22 µM in experiment [5]. Besides, the TGI in [7] worked out at 11 µM; in [9] it was 48.3 µM.
In the case of `Cc1nc2sc3c(N)ncnc3c2c(C)c1C`, the GI50 in experiment [1], in [2], in [3], in experiment [4], in [8] and in [5] was above 25 µM in each case. Further, the GI50 in experiment [7] and in experiment [9] was above 25 µM each time. Besides, the TGI in experiment [1], in experiment [2], in [3], in experiment [4], in experiment [8] and in [5] was above 25 µM each time. The TGI in [7] and in [9] was above 25 µM in each case.
On to `CCOc1ccc(C(C[N+](=O)[O-])Sc2ccccc2N)cc1` (stereo not given), for which the GI50 is 2.8 µM in [1]; 3.33 µM in experiment [2]; 2.01 µM in experiment [3]; 4.74 µM in experiment [4]; 6.77 µM in experiment [8]; 12.3 µM in [5]. Moreover, the GI50 in experiment [7] was 15.4 µM; in experiment [9], 3.27 µM. Further, the TGI in experiment [1] is 17.4 µM; in experiment [2] it was 13.2 µM; in experiment [3], 4.75 µM; in experiment [4] it was 16.8 µM; in [8], 25.3 µM; in experiment [5], 24.7 µM. Moreover, the TGI in experiment [7] came to 29.2 µM; in experiment [9], 10.2 µM.
Turning to `Nc1nc2c(-c3ccc([N+](=O)[O-])cc3)nnn2c2ccccc12`, the TGI in experiment [10] is above 100 µM; in [2] it was above 100 µM; in experiment [3], above 100 µM; in experiment [4] it was above 100 µM; in [5], above 100 µM; in experiment [7], 48.9 µM. Besides, the TGI in [9] is above 100 µM.
With `O=C1Cc2cc(CCn3cncn3)c(Cl)cc2N1`, the GI50 in experiment [1] is 13.2 µM; in experiment [2] it was above 100 µM; in experiment [3], 9.59 µM; in experiment [4] it was 23.3 µM; in experiment [8], above 100 µM; in experiment [5] it was above 100 µM. The GI50 in experiment [7] is above 100 µM; in experiment [9] it was 5.42 µM. Also, the TGI in experiment [1], in [2], in experiment [3], in experiment [4], in [8] and in experiment [5] was above 100 µM in each case. Also, the TGI in [7] and in experiment [9] was above 100 µM in each case.
In the case of `CC(=O)NNc1nc(C)c(C(=O)NNC(=O)C(=O)Nc2c([N+](=O)[O-])ccc(C)c2C)s1`, the TGI in experiment [10], in experiment [2], in [3], in experiment [4], in [5] and in [6] was above 100 µM in each case. Further, the TGI in experiment [7] and in experiment [9] was above 100 µM in each case.
Take `C#C[C@@]1(O)[C@@H](CO)O[C@@H](n2cc(C(F)(F)F)c3c(N)ncnc32)[C@@H]1O`: the GI50 is 1.12 µM in [1]; 0.103 µM in experiment [2]; 0.679 µM in experiment [3]; 0.255 µM in experiment [4]; 0.0639 µM in experiment [8]; 1.19 µM in experiment [5]. Moreover, the GI50 in experiment [7] is 0.966 µM; in experiment [9], 0.365 µM. For the same compound, the TGI in experiment [1] was 3.42 µM; in experiment [2], above 100 µM; in [3] it was above 25.5 µM; in [4], 1.27 µM; in [8], 3.77 µM; in [5] it was 4.84 µM. Moreover, the values for the TGI in [7] and in [9] were above 28.2 µM and above 30.4 µM, respectively.
Turning to `Clc1cccc(CNc2c3ccccc3nc3ccccc23)c1`, the GI50 in experiment [1] was 1.76 µM; in experiment [2], 1.91 µM; in [3], 1.88 µM; in [4], 1.54 µM; in [8], 2 µM; in experiment [5] it was 1.61 µM. Besides, the GI50 in experiment [7] was 2.95 µM; in experiment [9], 2.49 µM. For the same compound, the TGI came out at 6.44 µM in experiment [1]; 5.46 µM in experiment [2]; 4.6 µM in experiment [3]; 3.88 µM in [4]; 5.06 µM in experiment [8]; 3.02 µM in [5]. In addition, the TGI in experiment [7] was 8.99 µM; in experiment [9], 7.7 µM.
Regarding `COc1ccc(/C=C/C(=O)c2c(-c3ccccc3)nn(C)c(=O)c2N2CCOCC2)cc1`, the TGI in experiment [10], in experiment [2], in experiment [3], in experiment [4], in [6] and in experiment [7] was above 100 µM in each case.
On to `CCCCOc1ccc(/C=N/Nc2cc(C)nc3ccc(Br)cc23)cc1`, for which the GI50 is 1.7 µM in experiment [1]; 1.91 µM in experiment [2]; 1.61 µM in experiment [3]; 1.85 µM in experiment [4]; 1.69 µM in experiment [8]; 1.91 µM in experiment [5]. The results for the GI50 in [7] and in experiment [9] were 1.91 µM and 1.95 µM, respectively. The TGI in experiment [1] was determined as 3.24 µM; in experiment [2] it was 3.59 µM; in [3], 3.05 µM; in [4], 3.47 µM; in experiment [8], 3.6 µM; in [5] it was 3.4 µM. The values for the TGI in [7] and in [9] were 3.31 µM and 3.85 µM, respectively.
